The text below walks through data of patent publication US4863932A, “Squalene oxide cyclase inhibitors and therapeutic use thereof” (Somatogenetics International, Inc., priority 1988, dated 1989).

In one series the test system is SOC. The following applies: Duriatti et al. 1985; cited from earlier work.
In series [1] the test system is cyclases of higher plants. The following applies: Duriatti et al. 1985; cited from earlier work.
Series [2] has as its system sterol synthesis in primary rat hepatocytes. The series can be described thus: Inhibition of sterol synthesis in primary rat hepatocytes ([3H]-acetate pulse, digitonide precipitation). The format is cell-based. As for the experimental part:
Primary rat hepatocytes (2.2×10^6 cells/60 mm plate) were incubated overnight with various concentrations of inhibitor. The cells are then pulsed for 1 hour with tritiated acetate, harvested by centrifugation and the lipids extracted (Bligh, E. G. and Dyer, W. J. Can. J. Biochem. Physiol. 1959, 37. 911-917). Polar lipid are separated from neutral lipids by silicic acid chromatography. The polar lipids are collected and counted for radioactive acetate incorporation, and used as control for total acetate metabolism. The neutral lipid fraction is saponified and sterols precipitated with digitonide. The digitonide precipitate is counted to measure total incorporation of radioactive acetate into sterols.
lnhibition of sterol synthesis by PCR II-23 was determined as set forth in Example 1.

Series [3] deals with LDL receptor of HepG2 cells. Put plainly: Effect on the LDL receptor of HepG2 cells (125I-LDL binding, internalization, degradation). The format is cell-based. The following applies: for 125I-LDL Binding / 125I-LDL Internal / 125I-LDL Degradation: HepG2 cells; for 125I-LDL Binding: untreated 57 ± 3; for 125I-LDL Internal: untreated 374 ± 9; for 125I-LDL Degradation: untreated 701 ± 38; for LDL BINDING: ± SEM. On the procedure:
We have compared LA-I-140 and LN-I-83 with the conventional squalene oxide cyclase inhibitors U18666A and TMD by studying their effect on the LDL receptor of HepG2 cells.
The assay is essentially as described by Goldstein, Basu and Brown (Methods in Enzymology, 98: 241-260, 1983). Briefly, confluent cultures of HepG2 cells are incubated for 24 hours in cholesterol-free medium to induce LDL receptors. Test compounds are added to the medium at appropriate concenrations during this incubation. At the end of 24 hours [^125 I]labeled LDL (200-400 cpm/ng) is added to the medium (10-50 ug LDL protein/ml) and the cells are incubated at 37° C. for 3-6 hours.
(a) Degradation of ^125 I-LDL: The culture medium is removed from the monolayer of cells and undegraded LDL is precipitated with 10% (w/v) trichloroacetic acid.
The supernatant fraction is treated with 5% (w/v) silver nitrate to precipitate any free iodine. The radioactivity in the final supernatant fraction, which represents monoiodotyrosine, the proteolytic degradation product of ^125 I-LDL, is measured in a gamma counter.
(b) Specific binding of ^125 I-LDL: The cell monolayers are washed in a cold room (4° C.) three times rapidly with ice-cold buffer B (150 mM NaCl, 50 mM TrisHCl, pH 7.4 and 2 mg/ml bovine serum albumin). Each monolayer is incubated in buffer B for 10 minutes followed by one wash with buffer C (buffer B with bovine serum albumin omitted). Receptor-boundLDL is then released form cell surface by adding buffer D (50 mM NaCl, 10 mM HEPES, pH 7.4, 4 mg/ml dextran sulfate) and incubating at 4° C for 60 minutes on a rotary shaker (60 rotations per minute). An aliquot of buffer D is counted to determine the amount of ^125 I-LDL released from cell surface.
Internalization of ^125 I-LDL: After removal of buffer D, the cell monolayers are dissolved in 0.1 N NaOH by incubation overnight at 37° C. in a humidified incubator. The alkaline digest is briefly homogenized with the aid of a sonicator and aliquots are withdrawn for the determination of internalized radioactivity and for measurement of cell protein. All values are normalized for 1 mg of cell protein. The results are shown n Table 1 below:
In the case of PCR-II-23 and PCR-II-8B, we have examined their binding to the LDL receptors both when administered alone and in the presence of "down" regulators of this receptor (Table 2).

Series [4] concerns the target T1, squalene oxide cyclase (Rattus norvegicus, UniProt P48450).
T1 sequence (P48450 1-733): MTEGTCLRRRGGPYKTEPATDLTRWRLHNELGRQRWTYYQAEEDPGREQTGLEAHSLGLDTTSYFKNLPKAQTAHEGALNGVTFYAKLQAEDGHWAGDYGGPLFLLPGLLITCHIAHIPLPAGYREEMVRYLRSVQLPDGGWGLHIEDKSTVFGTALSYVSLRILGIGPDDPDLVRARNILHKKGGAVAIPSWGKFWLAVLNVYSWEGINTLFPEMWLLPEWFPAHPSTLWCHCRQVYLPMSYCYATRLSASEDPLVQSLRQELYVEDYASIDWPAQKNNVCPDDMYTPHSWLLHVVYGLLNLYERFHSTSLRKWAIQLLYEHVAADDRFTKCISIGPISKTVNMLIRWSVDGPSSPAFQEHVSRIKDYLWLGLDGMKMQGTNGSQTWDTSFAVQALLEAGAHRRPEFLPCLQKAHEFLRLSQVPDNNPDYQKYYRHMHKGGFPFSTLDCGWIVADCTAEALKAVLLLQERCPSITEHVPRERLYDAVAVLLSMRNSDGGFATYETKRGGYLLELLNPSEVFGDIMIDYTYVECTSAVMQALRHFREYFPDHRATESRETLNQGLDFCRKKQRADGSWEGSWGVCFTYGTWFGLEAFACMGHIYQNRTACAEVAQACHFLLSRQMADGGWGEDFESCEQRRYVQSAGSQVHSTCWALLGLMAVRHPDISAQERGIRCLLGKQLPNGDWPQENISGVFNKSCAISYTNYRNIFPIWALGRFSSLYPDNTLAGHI
The series can be described thus: biochemical. It counts as biochemical. On the set-up: Using a rat liver microsomal squalene oxide cyclase assay; from tissue; host or cells: rat liver microsomes / homogenate. The following applies: for IC50: 40 uM [3H]-oxidosqualene, pH 7.5, anaerobic, 1 hour, 37° C, read-out: I50 (dosage needed to suppress half the SOC activity); for effectiveness as SOC inhibitor relative to TMD: ratio of I50 values, TMD as reference. On the procedure: Using a rat liver microsomal squalene oxide cyclase assay, we have determined the dose at which these drugs and TMD reduce squalene oxide cyclase activity to one-half its normal value. Rat liver microsomes ([…] -rat liver homogenate) were prepared by the method of Popjak, G (Methods in Enzymology, 1969 XV, 393-545). The reaction mixture contained [^3 H]-(S)-[…] (40 uM final), Tween-80 (0.15% w/v final), 0.1 M potassium phosphate, pH 7.5, and inhibitor of varying concentration all in 0.8 ml. The reaction was initiated by the addition of 0.2 ml of the SIO homogenate. The reaction was flushed with N2 and incubated anaerobically for 1 hour at 37° C. The reaction was terminated by addition of 1 ml of 6% potassium hydroxide in methanol (w/v). […] After reduction to […], cold lanosterol was added as carrier, and the extract was applied to a silica TLC plate. After development in methylene chloride, the spot corresponding to lanosterol was scraped off and counted for radioactivity. The I50 for each inhibitor was determined from a plot of radioactive lanosterol formed versus inhibitor concentration.

The subject of series [5] is squalene oxide cyclase. Put plainly: SOC inhibition in in vivo experiments.
In series [6] the target is T1, squalene oxide cyclase.
In series [7] the test system is cholesterol biosynthesis in rat liver enzyme preparations. As to conditions: Nelson et al. 1978; cited from earlier work.
Series [8] has as its system cholesterol biosynthesis in CHO cells. As to conditions: Nelson et al. 1978; cited from earlier work.
For series [9] the following is noted: incubation with rat liver homogenate; Nelson et al. 1978; cited from earlier work.
The test system of another series is lymphocytes. As to conditions: in vivo; cited from earlier work.
Setting [10] is: inhibitor with suppressor 25-hydroxy-cholesterol (5 ug/ml), HDF 34 ± 3.
[11] abbreviates: inhibitor with suppressor LDL (200 ug/ml), HDF 27 ± 2.
The mark [12] stands for this setting: inhibitor with suppressor Mevalonate, HDF 19 ± 2.
Where [13] appears, read: suppressor: none, HDF control 88 ± 6.

Structures are written as SMILES. In brackets after ≈: the same amount, converted by molar mass.

Regarding `C[C@@H]1[C@@H](O)CC[C@]2(C)CCCC[C@@H]12` (relative stereo) [4,10 beta-dimethyl analogue], the “type of inhibition of SOC” value with SOC is listed as “nonoompetitive inhibitors of SOC”. Also, in series [1], the “effect on the cyclases of higher plants” value was “virtually no effect”.
Take `CC1(C)NCC[C@]2(C)CCCC[C@@H]12` (relative stereo) [LA-I-140, 4,4,10-trimethyl-trans-3-azadecalin]: the IC50 in series [2] (Hepatocyte, primary rat hepatocytes, overnight incubation, read-out: concentration reducing sterol synthesis to one-half of normal levels) was determined as 40 µg/mL (≈ 221 µM). In series [3] (20 ug/ml), the “125I-LDL Binding” value was determined as 75 ± 3 ng/mg cell protein, the “125I-LDL Internal” value was 642 ± 96 ng/mg cell protein and the “125I-LDL Degradation” value came to 408 ± 61 ng/mg cell protein.
As to `CC1(C)[C@@H](O)CC[C@]2(C)CCC(F)(F)C[C@@H]12` (relative stereo) [LN I-83, 4,4,10 beta-Trimethyl-7,7-difluoro-trans-decal-3beta-ol], in series [3] (20 ug/ml), the “125I-LDL Binding” value was found to be 105 ± 12 ng/mg cell protein, the “125I-LDL Internal” value was 687 ± 152 ng/mg cell protein and the “125I-LDL Degradation” value is given as 864 ± 47 ng/mg cell protein. Moreover, the IC50 on squalene oxide cyclase [4] is 430 µM.
`CC1(C)[C@@H](O)CC[C@]2(C)CCC3(CC3)C[C@@H]12` (relative stereo) [PCR II-8B, (4,4,10beta-trimethyl-trans-decal-3 beta-ol)--7-spiro-1'-cyclopropane]: in [2] (50 ug/ml), the “sterol biosynthesis by primary rat hepatocytes” value is reported as “no detectable sterol biosynthesis”. Also, the “LDL BINDING” value in [3] (setting [10]) is 69 ± 4 ng/mg cell protein; in series [3] (setting [11]) it was 39 ± 4 ng/mg cell protein; in series [3] (setting [12]) it was 176 ± 17 ng/mg cell protein; in series [3] (setting [13]) it was 278 ± 3 ng/mg cell protein. Moreover, the IC50 at squalene oxide cyclase [4] was 80 µM. For the same compound, the “effectiveness as SOC inhibitor relative to TMD” value at squalene oxide cyclase [4] was approximately 5.4 times.
Turning to `CC1(C)CC[C@@]2(C)CC[C@H](O)C(C)(C)[C@@H]2C1` (relative stereo) [PCR II-23, 4,4,7,7, 10beta-Pentamethvl-trans-decal-3beta-ol], the “LDL BINDING” value in [3] (setting [10]) worked out at 117 ± 11 ng/mg cell protein; in series [3] (setting [11]), 36 ± 2 ng/mg cell protein; in series [3] (setting [12]), 196 ± 30 ng/mg cell protein; in series [3] (setting [13]), 281 ± 18 ng/mg cell protein. The IC50 at squalene oxide cyclase [4] was found to be 160 µM. Also, the “effectiveness as SOC inhibitor relative to TMD” value at squalene oxide cyclase [4] is given as “about 2.7 times”.
Take `CC1(C)[C@@H](O)CC[C@]2(C)CCCC[C@@H]12` (relative stereo) [TMD, 4, 4,10 beta-trimethyl-trans-decal-3beta-ol]: in series [3] (20 ug/ml), the “125I-LDL Binding” value is given as 130 ± 11 ng/mg cell protein, the “125I-LDL Internal” value was determined as 891 ± 202 ng/mg cell protein and the “125I-LDL Degradation” value is 990 ± 71 ng/mg cell protein. Besides, in the series on squalene oxide cyclase [5], the “inhibition of SOC in vivo” value was “unexpectedly poor inhibitor of SOC”. For the same compound, the “inhibition of SOC in rat hepatocytes” value at squalene oxide cyclase [6] is reported as “unexpectedly poor inhibitor of SOC”. Also, in [7], the “inhibition of cholesterol biosynthesis” value is given as “specifically inhibited cholesterol biosynthesis”. Moreover, the “inhibition of cholesterol biosynthesis” value in series [8] is recorded as “specifically inhibited cholesterol biosynthesis”. Also, in series [9], the “major product of metabolism” value is 4,4,10beta-trimethyl-trans-decalin-3beta, 7beta-diol was isolated as the major product of TMD metabolism. In addition, in the series with SOC, the “type of inhibition of SOC” value was “nonoompetitive inhibitors of SOC”. Moreover, the “effect on the cyclases of higher plants” value in series [1] is on record as “virtually no effect”. In addition, on squalene oxide cyclase [4], the “inhibition of squalene oxide cyclase in in vitro microsomal assays” value was “effective inhibitor of squalene oxide cyclase” and the IC50 was found to be 430 µM.
`C[C@H](CCCC(C)(C)O)[C@H]1CC[C@H]2[C@@H]3CC=C4C[C@@H](O)CC[C@]4(C)[C@H]3CC[C@]12C` [25-hydroxy-cholesterol]: the “LDL BINDING” value in series [3] (suppressor alone in HDF, 5 ug/ml, no suppressor 88 ± 6) worked out at 34 ± 3 ng/mg cell protein.
Regarding `CC(O)(CCO)CC(=O)O` (stereo not shown) [Mevalonate], the “LDL BINDING” value in [3] (suppressor alone in HDF, no suppressor 88 ± 6) amounted to 19 ± 2 ng/mg cell protein.
As for `CC[C@H](C)C(=O)O[C@H]1C[C@@H](C)C=C2C=C[C@H](C)[C@H](CC[C@@H]3C[C@@H](O)CC(=O)O3)[C@H]21` [Mevinolin], the “up regulation of LDL receptors in HepG2 cells” value in [3] (culture medium free of sterol supplements (HDF)) was “equally effective in up regulation of LDL receptors”. Moreover, the “LDL BINDING” value turned out to be 3 ± 2 ng/mg cell protein in series [3] (setting [10]), 38 ± 3 ng/mg cell protein in series [3] (setting [11]), 35 ± 2 ng/mg cell protein in [3] (setting [12]) and 213 ± 4 ng/mg cell protein in [3] (setting [13]). For the same compound, the “defects in glycosylation of proteins in lymphocytes” value in the series with lymphocytes is “defects in the glycosylation of proteins in lymphocytes which can persist for ten months after administration”.
Turning to `CCN(CC)CCO[C@H]1CC[C@@]2(C)C(=CC[C@@H]3[C@@H]2CC[C@]2(C)C(=O)CC[C@@H]32)C1` [U18666A], in [3] (5 ug/ml), the “125I-LDL Binding” value was 160 ± 4 ng/mg cell protein, the “125I-LDL Internal” value is given as 1093 ± 17 ng/mg cell protein and the “125I-LDL Degradation” value stood at 682 ± 141 ng/mg cell protein.
